The record followed here is paper PMC12851007 (Angewandte Chemie (International Ed. in English), 2025).

Where a SMILES comes first, the peptide text is derived from it.

The format of test [1] is binding. The conditions noted are these: LCG displacement in 10 mM Hepes, pH 7.0, 25 °C; fluorescence; error = SD of nonlinear fit, n = 1. How it is done: Fluorescence titrations were performed as previously described and the resulting titration curves we re an al yz ed usi ng established pro cedur es . Competitive titrations were eithe r anal yz ed with a fitting function assuming 1:1 host-competitor complexes[3] or with a fitting function involving hi gher complex es with more than on e h ost bound per peptide.[4] In the latter c ase, an identical binding affinity is assumed for all binding sites. […]
Figure S1. a) Fluorescence titration of 0.5 µM LCG ( λex = 369 n m) with varying concentrations of CX4 in 10 mM Hepes, pH 7.0, 25 °C .b) Respective titration curve ( λem = 502 nm) with fitted line . […]
Figure S2. a) Competitive fluorescence titration wit h 0.5 µM LCG, 1 µM CX4 ( λex = 369 nm) and varying concentrations of penetratin in 10 mM Hepes, pH 7.0, 25 °C . b) Respective titration c ur ve (λem = 502 nm) with fitted line .
(also on this page, place not known: analyzed using procedures. were either analyzed host -competitor higher complexes one host case, 700 Intensity Intensity (λex °C. line. 650 0 Intensity 0 Intensity b) curve (λem nm) with line.)

Test [2] is described as follows: Dual-channel assay, CX4/LCG channel, POPC vesicles. The conditions noted are these: 175 mM glucose; for EC50: 12.5 µM POPC⸧CX4/LCG-LUVs and 12.5 µM POPC⸧CF-LUVs in 10 mM Hepes, pH 7.5, 25 °C, λexc 369/λem 475 nm, error = SD of fit, n = 1; for membrane activity in the CX4/LCG channel compared with the CF channel: dual-channel, seven independent POPC LUV batches (n = 7), penetratin 15 µM, Pep-1 10 µM, LRLLRW 30 µM, TP10 0.15 µM, 10 mM Hepes, pH 7.5, t-test/ANOVA p < 0.001, melittin: Figure S35 and Table S9. The test is classed as in vitro ADME. An excerpt: (§1) With the established identical extravesicular conditions in both assays, we further envisaged a simultaneous measurement of both assays within the same solution to enhance the comparability of the measurements. This became possible after optimization of the excitation and emission wavelengths. […] A further optimization was required, because the dye concentrations in the CF assay and the CX4/LCG assay are largely different.^[ [51], [52] ^] Consequently, simultaneous monitoring requires the detection of a low amount of LCG in the presence of a high concentration of the much more brightly fluorescent CF, which challenges the dynamic range of a typical fluorescence spectrometer in a dual‐channel measurement. To reduce the fluorescence read‐out of CF, the excitation wavelength was shifted from the absorption maximum at ca. 490 nm to 525 nm, where CF has a much lower absorbance, and the emission in the CF channel was shifted from its maximum at ca. 515 nm to 545 nm to further reduce the fluorescence of CF. To maintain a high LCG fluorescence, excitation was performed at the absorption maximum at 369 nm. Since CF has a residual absorbance at this excitation wavelength, emission in the LCG channel was monitored at 475 nm instead of 502 nm to eliminate spill‐over of CF fluorescence into the LCG channel. […]
(§2) Time-dep endent fluores cence intensit y traces, I (t), were subsequentl y normalized to fractional intensities, If(t), using equation (1) and the concentration- dependent fractional intensities just before the addition of th e calibration co cktail, I f, w ere then normaliz ed to fr actional membran e activities, Y, using equation (2). The fractional membrane activities, Y, were subsequently plotted against the peptide concentration, c, and anal ysed using the Hill equation (3) to obtain the effective molar concentration, EC 50, and the Hill coefficient, n. For peptides with too low activity to determine Y max ex perimentall y, Y max was fixed at 1.0 during fitting. […]
(§3) Dual-Channel Measurements
Vesicles w ere prep ared a s described abov e (se e en try (4) in Table S2 and entry (3) in Table S3) and eluted with freshl y prepared 10 mM Hepes, 175mM glucos e, pH 7.5 i n the size exclusion chromatograph y. For the measurements, an approp riate volume o f the liposome stock solutions was diluted to 2m L in a 10× 10 mm PS cuvette wi th 10 mM Hep es bu ffer and 175 mM glucos e at pH 7.5 to afford 12.5µM POPC ⊃CX4/LCG-LUVs and 12.5 µM POPC⊃CF-LUVs (25 µM POPC total). The cuvette was placed into a thermostatted fluorimeter sample holder at 25.0 °C and gentl y stirred at 300 rpm. The fluorescence intensity w as simultaneous l y r eco rded in the CF chann el ( λ exc = 525 nm, λ em = 545 nm) and in the LCG channel ( λ exc = 369 nm, λ em = 475 nm) with an ex citation slit width of 5 nm and an emission slit width of 5 n m during addition of 20 µL peptide stock solution of varying concentrations at 60 s and 20 µL of a calibration

Test [3] is described as follows: Dual-channel assay, CF channel, POPC vesicles. In kind it is biochemical. The conditions noted are these: 12.5 µM POPC⸧CX4/LCG-LUVs and 12.5 µM POPC⸧CF-LUVs in 10 mM Hepes, 175 mM glucose, pH 7.5, 25 °C; λexc 525/λem 545 nm; error = SD of fit, n = 1.
From the text: as §1, §2, §3
Vesicles w ere prep ared a s described abov e (se e en try (4) in Table S2 and entry (3) in Table S3) and eluted with freshl y prepared 10 mM Hepes, 175mM glucos e, pH 7.5 i n the size exclusion chromatograph y. […] The fluorescence intensity w as simultaneous l y r eco rded in the CF chann el ( λ exc = 525 nm, λ em = 545 nm) and in the LCG channel ( λ exc = 369 nm, λ em = 475 nm) with an ex citation slit width of 5 nm and an emission slit width of 5 n m during addition of 20 µL peptide stock solution of varying concentrations at 60 s and 20 µL of a calibration

In general, EC50 refers to the concentration giving half of the maximal effect. Consider `CC[C@H](C)[C@H](NC(=O)[C@H](CCCCN)NC(=O)[C@@H](NC(=O)[C@@H](N)CCC(N)=O)[C@@H](C)CC)C(=O)N[C@@H](Cc1c[nH]c2ccccc12)C(=O)N[C@@H](Cc1ccccc1)C(=O)N[C@@H](CCC(N)=O)C(=O)N[C@@H](CC(N)=O)C(=O)N[C@@H](CCCNC(=N)N)C(=O)N[C@@H](CCCNC(=N)N)C(=O)N[C@@H](CCSC)C(=O)N[C@@H](CCCCN)C(=O)N[C@@H](Cc1c[nH]c2ccccc12)C(=O)N[C@@H](CCCCN)C(=O)N[C@@H](CCCCN)C(=O)O` (H-QIKIWFQNRRMKWKK-OH), for which the “K a, binding constant of peptide to CX4” value in test [1] is listed as “(9.9 ± 1.8) × 10^7 M^−1”. For the same compound, in test [2], the EC50 came to 28 ± 2 µM and the “membrane activity in the CX4/LCG channel compared with the CF channel” value is reported as “significantly higher”. The EC50 in test [3] is above 1000 µM.
Regarding `CC(C)C[C@H](NC(=O)[C@H](CC(C)C)NC(=O)[C@H](CCCNC(=N)N)NC(=O)[C@@H](N)CC(C)C)C(=O)N[C@@H](CCCNC(=N)N)C(=O)N[C@@H](Cc1c[nH]c2ccccc12)C(N)=O` [LRLLRW] (H-LRLLRW-NH2), in test [1], the “K a, binding constant of peptide to CX4” value is given as “(1.3 ± 0.1) × 10^6 M^−1”. Moreover, in test [2], the half-maximal effective concentration (EC50) turned out to be 9 ± 0.9 µM and the “membrane activity in the CX4/LCG channel compared with the CF channel” value was “significantly higher”. Moreover, in test [3], the EC50 came out at 49 ± 6 µM.
The corresponding values for `CC(C)[C@H](NC(=O)[C@H](CCCCN)NC(=O)[C@H](CCCNC(=N)N)NC(=O)[C@H](CCCCN)NC(=O)[C@H](CCCCN)NC(=O)[C@H](CCCCN)NC(=O)[C@@H]1CCCN1C(=O)[C@H](CCC(N)=O)NC(=O)[C@H](CO)NC(=O)[C@H](Cc1c[nH]c2ccccc12)NC(=O)[C@H](CC(=O)O)NC(=O)[C@@H](NC(=O)[C@H](Cc1c[nH]c2ccccc12)NC(=O)[C@H](Cc1c[nH]c2ccccc12)NC(=O)[C@@H](NC(=O)[C@H](CC(=O)O)NC(=O)[C@H](Cc1c[nH]c2ccccc12)NC(=O)[C@H](Cc1c[nH]c2ccccc12)NC(=O)[C@@H](NC(=O)[C@H](CC(=O)O)NC(=O)[C@@H](N)CCCCN)[C@@H](C)O)[C@@H](C)O)[C@@H](C)O)C(=O)O` [Pep‐1] (H-KDTWWDTWWTDWSQPKKKRKV-OH) are “(2.8 ± 0.2) × 10^6 M^−1”, 22 ± 16 µM, “significantly higher” and above 1000 µM.
With `CC[C@H](C)[C@H](NC(=O)[C@H](CCCCN)NC(=O)[C@H](CCCCN)NC(=O)[C@H](C)NC(=O)[C@H](CC(C)C)NC(=O)[C@H](C)NC(=O)[C@H](C)NC(=O)[C@H](CC(C)C)NC(=O)[C@H](C)NC(=O)[C@H](CCCCN)NC(=O)[C@H](CC(C)C)NC(=O)[C@H](CC(N)=O)NC(=O)[C@@H](NC(=O)[C@H](CCCCN)NC(=O)CNC(=O)[C@H](CC(C)C)NC(=O)[C@H](CC(C)C)NC(=O)[C@H](Cc1ccc(O)cc1)NC(=O)CNC(=O)[C@H](C)N)[C@@H](C)CC)C(=O)N[C@@H](CC(C)C)C(=O)O` [TP10], in test [2], it took 0.78 ± 0.09 µM to reach a half-maximal effect (EC50) and the “membrane activity in the CX4/LCG channel compared with the CF channel” value is listed as “significantly higher membrane activity with the CF dye efflux assay”. Moreover, the EC50 in test [3] was found to be 0.053 ± 0.007 µM.
